The values below come from patent US20210238192A1, “VASCULAR ADHESION PROTEIN-1 (VAP-1) MODULATORS AND THERAPEUTIC USES THEREOF” (Blade Therapeutics, Inc., priority 2018, published 2021).

For orientation: IC50 means the midpoint of a concentration-inhibition curve.

Counter-ions that a name gives are not always drawn.

One experiment concerns the target T1, Human DAO (Homo sapiens, UniProt P19801).
T1 sequence (P19801 20-751): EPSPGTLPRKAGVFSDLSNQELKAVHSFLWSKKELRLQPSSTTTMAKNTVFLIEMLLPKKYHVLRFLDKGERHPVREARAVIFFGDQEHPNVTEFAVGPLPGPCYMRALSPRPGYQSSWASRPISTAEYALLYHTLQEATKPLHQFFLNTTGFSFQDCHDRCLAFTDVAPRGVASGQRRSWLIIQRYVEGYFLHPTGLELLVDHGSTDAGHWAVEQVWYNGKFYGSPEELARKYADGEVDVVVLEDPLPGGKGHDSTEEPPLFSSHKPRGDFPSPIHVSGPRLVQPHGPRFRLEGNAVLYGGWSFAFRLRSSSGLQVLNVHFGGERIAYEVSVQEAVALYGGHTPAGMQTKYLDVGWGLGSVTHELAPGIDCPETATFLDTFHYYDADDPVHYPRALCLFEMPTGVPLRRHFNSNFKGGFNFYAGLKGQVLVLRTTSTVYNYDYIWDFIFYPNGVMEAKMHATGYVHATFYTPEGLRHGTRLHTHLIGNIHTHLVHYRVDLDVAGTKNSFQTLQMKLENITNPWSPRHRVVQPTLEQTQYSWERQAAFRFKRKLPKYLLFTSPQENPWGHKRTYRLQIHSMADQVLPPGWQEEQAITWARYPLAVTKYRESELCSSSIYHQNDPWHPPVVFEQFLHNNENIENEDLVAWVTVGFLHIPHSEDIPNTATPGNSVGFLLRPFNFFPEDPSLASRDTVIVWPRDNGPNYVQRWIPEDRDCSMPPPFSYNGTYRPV
Description: DAO inhibition (Amplex Red continuous fluorescence assay). Type of experiment: biochemical. The following applies: 30 min pre-incubation at room temp; substrate histamine; read-out: Human DAO IC50. On the procedure:
(§1) VAP-1, DAO, MAO-A, MAO-B, and HRP activity and inhibition thereof was assessed by means of a continuous fluorescence assay. The Amplex Red Hydrogen Peroxide/Peroxidase Assay (ThermoFisher) was optimized for detecting amine oxidase (AO) activity. In an enzyme-coupled reaction, the H2O2 generated by AO reacts 1:1 with Amplex Red reagent to produce fluorescent product resorufin.
(§2) Assays were typically setup in black 384-well plates using automated liquid handling as follows. VAP-1/MAO assay buffer contains […] sodium phosphate, pH 7.4; DAO assay buffer contains 50 mM HEPES, pH 7.5; HRP assay buffer contains 100 mM CHES, 1 mM MgCl2, 50 mM NaCl, 0.05% BSA, pH 9.0. Inhibitors were serially diluted in DMSO and used to setup 2× mixtures with AO in the aforementioned buffer. After 30 min pre-incubation at 37° C. (VAP-1, HRP) or room temp (DAO, MAO), the reaction was initiated by adding a 2× mix of Amplex Red, HRP (coupling enzyme), and substrate (benzylamine, histamine, tyramine, benzylamine, H2O2, for VAP-1, DAO, MAO-A, MAO-B, and HR, respectively) in the same buffer. Reaction progress curve data were typically collected for 5 min using excitation/emission wavelengths of 510 nm/565 nm on FLIPR-Tetra plate readers (Molecular Devices Inc). Reaction rates were calculated from progress curve slopes typically over 60-150 sec. Dose response curves (rate vs. log inhibitor concentration) were typically fit to a 4-parameter logistic function to extract IC50 values.
Take `NC/C(=C\F)COc1ccc(-c2nc3ccccc3[nH]2)cc1` [Compound 10, (E)-2-((4-(1H-benzo[d]imidazol-2-yl)phenoxy)methyl)-3-fluoroprop-2-en-1-amine hydrochloride]: the IC50 is < 3 µM.
Still for that read-out and setting: the result for `NC/C(=C\F)COc1ccc(-c2nccs2)cc1` [Compound 19, (E)-3-fluoro-2-((4-(thiazol-2-yl)phenoxy)methyl)prop-2-en-1-amine hydrochloride] reads < 3 µM; that for `NC/C(=C\F)COCc1ccccc1` [Compound 5, (E)-2-((benzyloxy)methyl)-3-fluoroprop-2-en-1-amine hydrochloride], > 10 µM; that for `Cn1ccnc1-c1ccc(OC/C(=C\F)CN)cc1` [Compound 28, hydrochloride], < 3 µM.
The same measure, in the same setting: with `NC/C(=C\F)COc1ccc(C(=O)NCCOCCOCCOCCOCCOCCOCCOCCOCCOCCOCCOCCNC(=O)CCCCC2SCC3NC(=O)NC32)cc1` (centres unmarked) [Compound 78] the figure was < 3 µM; with `NC/C(=C\F)COc1ccc(-c2ccccc2)cc1` [Compound 33, (E)-2-(([1,1′-biphenyl]-4-yloxy)methyl)-3-fluoroprop-2-en-1-amine hydrochloride], > 10 µM.
Same read-out and setting: the result for `Cn1nccc1-c1ccc(OC/C(=C/F)CN)cc1` [Compound 48, (E)-3-fluoro-2-((4-(1-methyl-1H-pyrazol-5-yl)phenoxy)methyl)prop-2-en-1-amine hydrochloride] reads < 3 µM; that for `CCN(CC)C(=O)Nc1ccc(OC/C(=C/F)CN)cc1` [Compound 24, (E)-3-(4-((2-(aminomethyl)-3-fluoroalkyl)oxy)phenyl)-1,1-diethylurea hydrochloride], > 10 µM.

The target in the next experiment is T2, Human VAP-1 (Homo sapiens, UniProt Q16853).
T2 sequence (Q16853 1-763): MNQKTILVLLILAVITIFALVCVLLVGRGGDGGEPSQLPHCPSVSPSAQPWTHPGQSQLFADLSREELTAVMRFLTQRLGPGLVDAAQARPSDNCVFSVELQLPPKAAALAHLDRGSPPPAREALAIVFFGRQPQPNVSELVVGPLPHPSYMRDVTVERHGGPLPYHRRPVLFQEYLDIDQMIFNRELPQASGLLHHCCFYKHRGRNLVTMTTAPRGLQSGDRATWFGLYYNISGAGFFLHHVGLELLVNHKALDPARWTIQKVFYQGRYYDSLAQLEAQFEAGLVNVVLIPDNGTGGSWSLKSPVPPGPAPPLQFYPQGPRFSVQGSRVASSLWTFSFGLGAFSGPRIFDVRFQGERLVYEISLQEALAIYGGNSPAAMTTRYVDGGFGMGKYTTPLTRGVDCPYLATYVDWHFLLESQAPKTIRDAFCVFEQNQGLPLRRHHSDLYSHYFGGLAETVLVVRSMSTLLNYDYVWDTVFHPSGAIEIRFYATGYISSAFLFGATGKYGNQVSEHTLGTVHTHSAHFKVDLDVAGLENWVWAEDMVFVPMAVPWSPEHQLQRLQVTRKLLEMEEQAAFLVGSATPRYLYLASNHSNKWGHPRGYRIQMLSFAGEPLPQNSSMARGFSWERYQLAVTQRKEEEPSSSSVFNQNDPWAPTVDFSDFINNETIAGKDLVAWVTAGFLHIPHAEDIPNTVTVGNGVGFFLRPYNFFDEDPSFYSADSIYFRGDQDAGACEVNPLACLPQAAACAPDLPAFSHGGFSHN
Description: VAP-1 inhibition assay (Amplex Red continuous fluorescence assay). Type of experiment: biochemical. The following applies: 30 min pre-incubation at 37° C.; substrate benzylamine; read-out: Human VAP-1 IC50. The method, then: as §1, §2
`NC/C(=C\F)COc1ccc(-c2nc3ccccc3[nH]2)cc1` [Compound 10, (E)-2-((4-(1H-benzo[d]imidazol-2-yl)phenoxy)methyl)-3-fluoroprop-2-en-1-amine hydrochloride]: the IC50 was < 3 µM.
Same read-out and setting: with `NC/C(=C\F)COc1ccc(-c2nccs2)cc1` [Compound 19, (E)-3-fluoro-2-((4-(thiazol-2-yl)phenoxy)methyl)prop-2-en-1-amine hydrochloride] the figure was < 3 µM; with `NC/C(=C\F)COCc1ccccc1` [Compound 5, (E)-2-((benzyloxy)methyl)-3-fluoroprop-2-en-1-amine hydrochloride], < 3 µM.
With `Cn1ccnc1-c1ccc(OC/C(=C\F)CN)cc1` [Compound 28, hydrochloride], the half-maximal inhibitory concentration (IC50) was < 3 µM.
With `NC/C(=C\F)COc1ccc(C(=O)NCCOCCOCCOCCOCCOCCOCCOCCOCCOCCOCCOCCNC(=O)CCCCC2SCC3NC(=O)NC32)cc1` (centres unmarked) [Compound 78], the IC50 was < 3 µM.
On to `NC/C(=C\F)COc1ccc(-c2ccccc2)cc1` [Compound 33, (E)-2-(([1,1′-biphenyl]-4-yloxy)methyl)-3-fluoroprop-2-en-1-amine hydrochloride], for which the IC50 is < 3 µM.
Same read-out and setting: with `Cn1nccc1-c1ccc(OC/C(=C/F)CN)cc1` [Compound 48, (E)-3-fluoro-2-((4-(1-methyl-1H-pyrazol-5-yl)phenoxy)methyl)prop-2-en-1-amine hydrochloride] the figure was < 3 µM; with `CCN(CC)C(=O)Nc1ccc(OC/C(=C/F)CN)cc1` [Compound 24, (E)-3-(4-((2-(aminomethyl)-3-fluoroalkyl)oxy)phenyl)-1,1-diethylurea hydrochloride], < 3 µM.

In another experiment the target is T3, Human MAO-A (Homo sapiens, UniProt P21397).
T3 sequence (P21397 1-527): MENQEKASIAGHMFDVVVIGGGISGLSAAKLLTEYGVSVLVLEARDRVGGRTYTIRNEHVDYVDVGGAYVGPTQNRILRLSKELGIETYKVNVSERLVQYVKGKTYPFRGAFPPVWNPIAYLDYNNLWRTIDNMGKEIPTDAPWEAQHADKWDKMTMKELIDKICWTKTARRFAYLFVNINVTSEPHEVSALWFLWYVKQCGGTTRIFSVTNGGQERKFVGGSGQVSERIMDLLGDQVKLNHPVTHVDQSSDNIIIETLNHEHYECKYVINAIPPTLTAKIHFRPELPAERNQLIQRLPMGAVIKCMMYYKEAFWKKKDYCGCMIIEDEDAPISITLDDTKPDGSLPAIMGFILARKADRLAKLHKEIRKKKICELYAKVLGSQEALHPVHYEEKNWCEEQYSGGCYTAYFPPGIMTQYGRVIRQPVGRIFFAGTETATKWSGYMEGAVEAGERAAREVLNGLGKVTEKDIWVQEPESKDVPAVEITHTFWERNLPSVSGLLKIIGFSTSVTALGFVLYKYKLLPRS
Description: MAO-A inhibition (Amplex Red continuous fluorescence assay). In kind it is biochemical. As to conditions: 30 min pre-incubation at room temp; substrate tyramine; read-out: Human MAO-A IC50. On the procedure: as §1, §2
For `NC/C(=C\F)COc1ccc(-c2nc3ccccc3[nH]2)cc1` [Compound 10, (E)-2-((4-(1H-benzo[d]imidazol-2-yl)phenoxy)methyl)-3-fluoroprop-2-en-1-amine hydrochloride], the half-inhibitory concentration (IC50) is > 10 µM.
`NC/C(=C\F)COc1ccc(-c2nccs2)cc1` [Compound 19, (E)-3-fluoro-2-((4-(thiazol-2-yl)phenoxy)methyl)prop-2-en-1-amine hydrochloride]: the concentration for half-maximal inhibition (IC50) fell in the range of 3 to 10 µM.
`NC/C(=C\F)COCc1ccccc1` [Compound 5, (E)-2-((benzyloxy)methyl)-3-fluoroprop-2-en-1-amine hydrochloride]: the IC50 was < 3 µM.
For the compound `Cn1ccnc1-c1ccc(OC/C(=C\F)CN)cc1` [Compound 28, hydrochloride], the IC50 was > 10 µM.
Same read-out and setting: the result for `NC/C(=C\F)COc1ccc(C(=O)NCCOCCOCCOCCOCCOCCOCCOCCOCCOCCOCCOCCNC(=O)CCCCC2SCC3NC(=O)NC32)cc1` (centres unmarked) [Compound 78] reads > 10 µM; that for `NC/C(=C\F)COc1ccc(-c2ccccc2)cc1` [Compound 33, (E)-2-(([1,1′-biphenyl]-4-yloxy)methyl)-3-fluoroprop-2-en-1-amine hydrochloride], < 3 µM; that for `Cn1nccc1-c1ccc(OC/C(=C/F)CN)cc1` [Compound 48, (E)-3-fluoro-2-((4-(1-methyl-1H-pyrazol-5-yl)phenoxy)methyl)prop-2-en-1-amine hydrochloride], > 10 µM.
On to `CCN(CC)C(=O)Nc1ccc(OC/C(=C/F)CN)cc1` [Compound 24, (E)-3-(4-((2-(aminomethyl)-3-fluoroalkyl)oxy)phenyl)-1,1-diethylurea hydrochloride], for which the concentration for half-maximal inhibition (IC50) lay in the range of 3 to 10 µM.

In a further experiment the target is T4, Human MAO-B (Homo sapiens, UniProt P27338).
T4 sequence (P27338 1-520): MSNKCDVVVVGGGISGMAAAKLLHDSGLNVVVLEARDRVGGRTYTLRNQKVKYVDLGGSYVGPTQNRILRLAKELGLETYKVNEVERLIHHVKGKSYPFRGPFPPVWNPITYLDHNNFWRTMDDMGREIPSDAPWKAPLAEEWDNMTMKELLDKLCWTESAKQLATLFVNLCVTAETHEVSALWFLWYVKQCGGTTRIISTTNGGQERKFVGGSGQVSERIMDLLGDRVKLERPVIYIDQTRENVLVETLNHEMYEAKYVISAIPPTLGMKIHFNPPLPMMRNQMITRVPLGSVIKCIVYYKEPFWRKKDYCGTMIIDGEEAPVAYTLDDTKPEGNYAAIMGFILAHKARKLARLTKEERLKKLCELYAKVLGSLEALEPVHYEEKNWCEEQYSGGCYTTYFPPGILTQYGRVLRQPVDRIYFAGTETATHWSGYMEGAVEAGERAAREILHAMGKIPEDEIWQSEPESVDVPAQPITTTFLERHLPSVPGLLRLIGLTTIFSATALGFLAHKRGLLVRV
Description: MAO-B inhibition (Amplex Red continuous fluorescence assay). In kind it is biochemical. The following applies: 30 min pre-incubation at room temp; substrate benzylamine; read-out: Human MAO-B IC50. On the procedure:
as §1, §2
As to `NC/C(=C\F)COc1ccc(-c2nc3ccccc3[nH]2)cc1` [Compound 10, (E)-2-((4-(1H-benzo[d]imidazol-2-yl)phenoxy)methyl)-3-fluoroprop-2-en-1-amine hydrochloride], the half-inhibitory concentration (IC50) was < 3 µM.
The same measure, in the same setting: with `NC/C(=C\F)COc1ccc(-c2nccs2)cc1` [Compound 19, (E)-3-fluoro-2-((4-(thiazol-2-yl)phenoxy)methyl)prop-2-en-1-amine hydrochloride] the figure was < 3 µM.
Still for that read-out and setting: with `NC/C(=C\F)COCc1ccccc1` [Compound 5, (E)-2-((benzyloxy)methyl)-3-fluoroprop-2-en-1-amine hydrochloride] the figure was < 3 µM; with `Cn1ccnc1-c1ccc(OC/C(=C\F)CN)cc1` [Compound 28, hydrochloride], < 3 µM; with `NC/C(=C\F)COc1ccc(C(=O)NCCOCCOCCOCCOCCOCCOCCOCCOCCOCCOCCOCCNC(=O)CCCCC2SCC3NC(=O)NC32)cc1` (centres unmarked) [Compound 78], > 10 µM.
Same read-out and setting: with `NC/C(=C\F)COc1ccc(-c2ccccc2)cc1` [Compound 33, (E)-2-(([1,1′-biphenyl]-4-yloxy)methyl)-3-fluoroprop-2-en-1-amine hydrochloride] the figure was < 3 µM.
As for `Cn1nccc1-c1ccc(OC/C(=C/F)CN)cc1` [Compound 48, (E)-3-fluoro-2-((4-(1-methyl-1H-pyrazol-5-yl)phenoxy)methyl)prop-2-en-1-amine hydrochloride], the half-inhibitory concentration (IC50) is < 3 µM.
With `CCN(CC)C(=O)Nc1ccc(OC/C(=C/F)CN)cc1` [Compound 24, (E)-3-(4-((2-(aminomethyl)-3-fluoroalkyl)oxy)phenyl)-1,1-diethylurea hydrochloride], the IC50 is < 3 µM.
